Legend:
ROCK2 = ROCK2 (Homo sapiens (Human), UniProt O75116); assay: ROCK2 kinase inhibition assay (peptide phosphorylation, LABCHIP 3000); format: biochemical; conditions: 7 μM ATP, 2.5 nM ROCK2, 3 hours at 25° C.
Procedure: The peptide is phosphorylated by the protein kinase ROCK1 or ROCK2. The ROCK1 or ROCK2 enzyme, substrate, and cofactors (ATP and Mg^2+) are combined in a well of a microtiter plate and incubated for 3 hours at 25° C. in the presence or absence of an inhibitor compound. At the end of the incubation, the reaction is quenched by the addition of an EDTA-containing buffer. The substrate and product are separated and quantified electrophoretically using the microfluidic-based LABCHIP® 3000 Drug Discovery System from Caliper Life Sciences (Hopkinton, Mass.).
The components of the assay mixture are:
10 μM Sodium Orthovanadate
10 LM Beta-Glycerophosphate
5 μM ATP (for ROCK1) or 7 μM ATP (for ROCK2)
3 nM ROCK1 or 2.5 nM ROCK2 enzyme
Substrate and product peptides present in each sample are separated electrophoretically using the LABCHIP® 3000 capillary electrophoresis instrument. […] Change in the relative fluorescence intensity of the substrate and product peaks is the parameter measured reflecting enzyme activity. Capillary electrophoregramms (RDA acquisition files) are analyzed using HTS Well Analyzer software (Caliper Life Sciences, Hopkinton, Mass.). The kinase activity in each sample is determined as the product to sum ratio (PSR): P/(S+P), where P is the peak height of the product peptide and S is the peak height of the substrate peptide. For each compound, enzyme activity is measured at various concentrations (12 concentrations of compound spaced by 3× dilution intervals). Negative control samples (0%-inhibition in the absence of inhibitor) and positive control samples (100%-inhibition in the presence of 20 mM EDTA) are assembled in replicates of four and are used to calculate %-inhibition values for each compound at each concentration. Percent inhibition (Pinh) is determined using the following equation: Pinh=(PSRO %−PSRinh)/(PSRO %−PSR100%)*100
where PSRinh is the product sum ratio in the presence of inhibitor, PSRO % is the average product sum ratio in the absence of inhibitor, and PSR100% is the average product sum ratio in 100%-inhibition control samples. The IC50 values of inhibitors are determined by fitting the inhibition curves (Pinh versus inhibitor concentration) by the 4-parameter sigmoidal dose-response model using XLfit 4 software (IBDS).

MV411 cell line = assay: Cell viability assay ([…]-GLO), MV411; format: cell-based; conditions: for IC50: Homo sapiens, MV4-11, MV411 (ITD-FLT3+), 72 hours treatment; for FLT3-ITD+ Selectivity (K562/MV411): ratio K562/MV411
Procedure: Cell viability was measured by the […] -GlO® cell viability assay from Promega (Madison, Wis.). The […] -GlO Luminescent Cell Viability Assay is a homogeneous method to determine the number of viable cells in culture based on quantitation of the ATP present, which signals the presence of metabolically active cells. Following treatment, […] -GlO® is added to treatment wells and incubated at 37° C. Luminescence values were measured at using a Molecular Devices Spectramax microplate reader.

K562 cell line = assay: Cell viability assay ([…]-GLO), K562; format: cell-based; conditions: Homo sapiens; K562 (does not express ITD-FLT3), 72 hours treatment
Procedure: Cell viability in the presence of varying concentrations of the above listed compounds at different time points was used to assess cytotoxicity and the effect of the compounds on cell proliferation.
Cell viability was measured by the […]-GlO® cell viability assay from Promega (Madison, Wis.). The […]-GlO Luminescent Cell Viability Assay is a homogeneous method to determine the number of viable cells in culture based on quantitation of the ATP present, which signals the presence of metabolically active cells. Following treatment, […]-GlO® is added to treatment wells and incubated at 37° C. Luminescence values were measured at using a Molecular Devices Spectramax microplate reader.
Cells were grown to 70% confluency, trypsinized, counted, and seeded in 96 well flat-bottom plates at a final concentration of 2.5×10^3-5×10^3 cells/well (Day 0). Cells were allowed to incubate in growth media for 24 hours. Treatment with the test agents or standard agents began on Day 1 and continued for 72 hours. At the 72-hour time point, treatment containing media was removed. Viable cell numbers were quantified by the […]-GLO® cell viability assay as described above. Results from these studies were used to calculate an IC50 value (concentration of drug that inhibits cell growth by 50 percent of control) for each compound.
For single agent and combination studies, data from each experiment was collected and expressed as % Cell Growth using the following calculation: % Cell Growth=(ftest/fvehicle)×100
Where ftest is the luminescence of the tested sample, and fvehicle is the luminescence of the vehicle in which the drug is dissolved. Dose response graphs and IC50 values were generated using Prism 6 software (GraphPad) using the following equation: Y=(Top−Bottom)/(1+10^((logIC50-X)−HillSlope))
Where X is the logarithm of the concentration and Y is the response. Y starts at the Bottom and goes to the Top with a sigmoid shape.
The experiments also evaluated the selectivity of the compounds for inhibiting growth of cancer cells carrying a mutation in the Flt3 gene. The MV411 cell line expresses the mutant allele of Flt3 with internal tandem duplications (ITD) of the gene. See Quentmeier et al., “FLT3 Mutations in Acute Myeloid Leukemia Cell Lines,” Leukemia 17(1), 2003, 120-124. […] See Grafone et al., “Monitoring of FLT3 Phosphorylation Status and Its Response to Drugs By Flow Cytometry in AML Blast Cells,” Hematol Oncol. 26(3), 2008, 159-166.

Sequence of ROCK2 (O75116 whole entry, species assumed): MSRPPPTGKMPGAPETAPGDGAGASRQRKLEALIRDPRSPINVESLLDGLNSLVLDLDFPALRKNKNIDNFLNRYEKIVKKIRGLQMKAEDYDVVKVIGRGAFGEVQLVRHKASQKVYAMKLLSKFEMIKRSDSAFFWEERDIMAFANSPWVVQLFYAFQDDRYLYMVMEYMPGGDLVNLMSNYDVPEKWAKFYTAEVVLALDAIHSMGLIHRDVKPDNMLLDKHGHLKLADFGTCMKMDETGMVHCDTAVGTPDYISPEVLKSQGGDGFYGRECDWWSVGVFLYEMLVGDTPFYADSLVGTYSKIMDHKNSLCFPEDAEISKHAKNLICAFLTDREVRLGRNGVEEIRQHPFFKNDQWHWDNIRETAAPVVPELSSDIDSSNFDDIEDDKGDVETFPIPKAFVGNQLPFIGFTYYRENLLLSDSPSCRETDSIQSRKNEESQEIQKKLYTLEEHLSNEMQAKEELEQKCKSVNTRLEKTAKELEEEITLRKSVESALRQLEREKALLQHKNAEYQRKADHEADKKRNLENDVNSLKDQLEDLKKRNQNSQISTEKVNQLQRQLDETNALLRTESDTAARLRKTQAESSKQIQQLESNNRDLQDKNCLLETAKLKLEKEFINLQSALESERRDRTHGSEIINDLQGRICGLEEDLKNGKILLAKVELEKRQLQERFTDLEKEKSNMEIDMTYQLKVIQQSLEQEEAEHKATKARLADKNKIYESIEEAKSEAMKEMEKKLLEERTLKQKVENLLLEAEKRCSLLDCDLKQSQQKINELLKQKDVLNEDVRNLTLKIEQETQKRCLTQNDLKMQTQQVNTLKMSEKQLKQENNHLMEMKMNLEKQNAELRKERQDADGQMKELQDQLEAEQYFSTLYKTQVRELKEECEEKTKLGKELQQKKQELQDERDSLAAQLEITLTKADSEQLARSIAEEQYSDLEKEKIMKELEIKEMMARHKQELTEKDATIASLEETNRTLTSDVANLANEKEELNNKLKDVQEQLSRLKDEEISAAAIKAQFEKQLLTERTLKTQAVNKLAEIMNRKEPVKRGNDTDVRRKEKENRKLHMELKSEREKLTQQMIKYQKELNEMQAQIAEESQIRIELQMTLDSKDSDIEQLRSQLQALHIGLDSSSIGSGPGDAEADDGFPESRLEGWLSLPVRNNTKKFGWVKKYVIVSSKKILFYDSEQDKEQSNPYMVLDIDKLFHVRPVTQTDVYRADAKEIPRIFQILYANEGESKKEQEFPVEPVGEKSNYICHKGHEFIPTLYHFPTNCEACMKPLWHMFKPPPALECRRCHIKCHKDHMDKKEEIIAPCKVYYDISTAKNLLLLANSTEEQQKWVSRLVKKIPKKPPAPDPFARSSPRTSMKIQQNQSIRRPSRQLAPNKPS

SMILES | IC50 (ROCK2) | IC50 (MV411 cell line) | IC50 (K562 cell line) | FLT3-ITD+ Selectivity (K562/MV411) (MV411 cell line)
CNC(=O)c1cccc([C@@H](CO)NC(=O)c2ccc(-c3ccncc3)cc2)c1 [Compound 11] | 2.7 nM | 12300 nM | > 100 µM | >8
CC(NC(=O)c1ccc(-c2ccncc2)cc1)c1cccc(OCC(=O)NC2CC2)c1 (stereo not shown) [Compound 15] | 9 nM | 4000 nM | > 100 µM | >25
CC(NC(=O)c1ccc(-c2ccncc2)cc1)c1cccc(OCC(=O)Nc2ccc3c(c2)CN(C)CC3)c1 (stereo not shown) [Compound 16] | 3.6 nM | 1500 nM | 30 µM | 20
COc1ccc(C(=O)N[C@H](C)c2cccc(C(=O)Nc3nc4c(s3)CN(C)CC4)c2)cc1C [Compound 17] | 22.5 nM | 13500 nM | > 100 µM | >7
COc1ccc(C(=O)N[C@H](CO)c2cccc(C(=O)Nc3nc4c(s3)CN(C)CC4)c2)cc1C [Compound 18] | 19.6 nM | 15900 nM | > 100 µM | >6
COc1ccc(C(=O)N[C@H](CO)c2cccc(C(=O)Nc3ccc4c(c3)CN(C)CC4)c2)cc1C [Compound 19] |  | 13200 nM | 44 µM | 3
COc1cccc(CN(CCN(C)C)C(=O)c2cccc([C@@H](CO)NC(=O)c3ccc(-c4ccncc4)cc3)c2)c1 [Compound 25] |  | 18900 nM |  | 
CN1CCOc2ccc(NC(=O)c3cccc([C@@H](CO)NC(=O)c4ccc(-c5ccncc5)cc4)c3)cc2C1 [Compound 29] |  | 65100 nM |  | 
CN1CCc2ccc(NC(=O)c3cccc([C@@H](CO)NC(=O)c4ccc(-c5ccncc5)cn4)c3)cc2C1 [Compound 37] | 3 nM | 1700 nM |  | 
CN(C(=O)c1cccc([C@@H](CO)NC(=O)c2ccc(-c3ccncc3)cc2)c1)C1CC1 [Compound 38] | 56 nM | 20000 nM |  | 
CN1CCc2ccc(NC(=O)c3cccc([C@@H](CO)NC(=O)c4cccc(-c5ccncc5)c4)c3)cc2C1 [Compound 41] | 6.53 nM |  |  | 
CN1CCc2ccc(NC(=O)c3cccc([C@@H](CO)NC(=O)c4cccc(-c5ccn[nH]5)c4)c3)cc2C1 [Compound 42] | 72.6 nM |  |  | 
CN1CCc2ccc(NC(=O)c3cccc([C@@H](CO)NC(=O)c4ccc(-c5ccn[nH]5)cc4)c3)cc2C1 [Compound 43] | 9.3 nM |  |  | 
CN1CCc2ccc(NC(=O)c3cccc([C@@H](CO)NC(=O)c4ccc(-c5cccnc5)cc4)c3)cc2C1 [Compound 44] | 240 nM |  |  | 
CN(C(=O)c1ccc(-c2ccncc2)cc1)[C@H](CO)c1cccc(C(=O)NC2CCCC2)c1 [Compound 45] | 257 nM |  |  | 
COc1ccc(C(=O)N[C@H](C)c2cccc(C(=O)NCC3CCN(C(C)C)CC3)c2)cc1C [Compound 68] | 104 nM |  |  | 
O=C(NC1CCCC1)c1cccc([C@@H](CO)NC(=O)c2cccc(-c3cn[nH]c3)c2)c1 [Compound 83] |  | 3600 nM | > 100 µM | >28
O=C(NC1CCCC1)c1cccc([C@@H](CO)NC(=O)c2cccc(-c3cn[nH]c3)c2)c1 [Compound 106] | 20 nM |  |  | 
Cc1c[nH]c2nccc(Oc3c(F)cc(Nc4cc(Cl)nc(N)n4)cc3F)c12 [Compound A, reference compound] |  | 700 nM | 0.8 µM | 

Now from value to molecule, other results behind:

IC50 (ROCK2) | IC50 (MV411 cell line) | IC50 (K562 cell line) | SMILES | FLT3-ITD+ Selectivity (K562/MV411) (MV411 cell line)
1.2 nM | 200 nM | 8 µM | C[C@@H](NC(=O)c1ccc(-c2ccncc2)cc1)c1cccc(C(=O)Nc2ccc3c(c2)CN(C)CC3)c1 [Compound 6] | 40
1.3 nM |  |  | CN1Cc2ccc(NC(=O)c3cccc([C@@H](CO)NC(=O)c4ccc(-c5ccncc5)cc4)c3)cc2C1 [Compound 8] | 
1.7 nM | 800 nM | 35 µM | O=C(Nc1ccccc1)c1cccc([C@@H](CO)NC(=O)c2ccc(-c3ccncc3)cc2)c1 [Compound 9] | 47
1.8 nM | 540 nM | > 100 µM | O=C(NC1CC1)c1cccc([C@@H](CO)NC(=O)c2ccc(-c3ccncc3)cc2)c1 [Compound 12] | >187
1.7 nM | 3000 nM | 27 µM | O=C(NCc1ccccc1)c1cccc([C@@H](CO)NC(=O)c2ccc(-c3ccncc3)cc2)c1 [Compound 13] | 9
1.6 nM | 90 nM | 48 µM | CN(C)Cc1cccc(NC(=O)c2cccc([C@@H](CO)NC(=O)c3ccc(-c4ccncc4)cc3)c2)c1 [Compound 14] | 532
1.2 nM | 10 nM | 16 µM | CN(C)CCc1ccc(NC(=O)c2cccc([C@@H](CO)NC(=O)c3ccc(-c4ccncc4)cc3)c2)cc1 [Compound 20] | 1585
0.57 nM | 3800 nM | > 100 µM | O=C(NCC1CCOCC1)c1cccc([C@@H](CO)NC(=O)c2ccc(-c3ccncc3)cc2)c1 [Compound 22] | >27
0.3 nM | 90 nM | 56 µM | CN1CCC(CNC(=O)c2cccc([C@@H](CO)NC(=O)c3ccc(-c4ccncc4)cc3)c2)CC1 [Compound 23] | 632
0.39 nM | 4400 nM | 25 µM | CN1CCc2ccc(NC(=O)c3cccc([C@@H](CO)NC(=O)c4ccc(-c5ccncc5)cc4)c3)cc2C1=O [Compound 27] | 6
0.38 nM |  |  | CN(C)Cc1cccc(CNC(=O)c2cccc([C@@H](CO)NC(=O)c3ccc(-c4ccncc4)cc3)c2)c1 [Compound 33] | 
0.69 nM |  |  | COCCOc1cccc(CNC(=O)c2cccc([C@@H](CO)NC(=O)c3ccc(-c4ccncc4)cc3)c2)c1 [Compound 34] | 
0.3 nM | 10 nM | 9.4 µM | C[C@@H](NC(=O)c1ccc(-c2ccncc2)cc1)c1cccc(C(=O)NCc2ccc(CN(C)C)cc2)c1 [Compound 39] | 940
0.41 nM | 3400 nM |  | C[C@@H](NC(=O)c1ccc(-c2ccncc2)cc1)c1cccc(C(=O)NCC2CCC(F)(F)CC2)c1 [Compound 40] | 
1.88 nM | 90 nM | 11 µM | O=C(NC1CCCC1)c1cccc([C@@H](CO)NC(=O)c2ccc(-c3cn[nH]c3)cc2)c1 [Compound 46] | 122
0.54 nM | 100 nM | 36 µM | CN(C)Cc1ccc(CNC(=O)c2cccc([C@@H](CO)NC(=O)c3ccc(-c4ccncc4)cn3)c2)cc1 [Compound 47] | 360
1.01 nM | 440 nM | > 100 µM | O=C(NC1CCC1)c1cccc([C@@H](CO)NC(=O)c2ccc(-c3ccncc3)cc2)c1 [Compound 48] | >230
0.3 nM | 20 nM | > 100 µM | C[C@@H](NC(=O)c1ccc(-c2ccncc2)cc1)c1cccc(C(=O)NCC2CCN(C)CC2)c1 [Compound 49] | >5050
0.23 nM |  |  | C[C@H](c1cccc(C(=O)NC2CCCC2)c1)N(CCN(C)C)C(=O)c1ccc(-c2ccncc2)cc1 [Compound 98] | 
